The target of data set [1] is T1, Protein cereblon/Cyclic GMP-AMP synthase (Homo sapiens, UniProt Q96SW2+Q8N884). In words: PROTAC activity at CRBN/cGAS in human THP-1 cells assessed as induction of cGAS degradation at 10 uM preincubated with compound for 40 hrs followed by HT-DNA stimulation and measured after 8 hrs by Western blot analysis relative to control. As to conditions: time 48.0 hrs. It counts as cell-based. A general note: In western blotting, separated proteins are transferred to a membrane and probed.
T1 sequence (Q8N884 whole entry, looked up): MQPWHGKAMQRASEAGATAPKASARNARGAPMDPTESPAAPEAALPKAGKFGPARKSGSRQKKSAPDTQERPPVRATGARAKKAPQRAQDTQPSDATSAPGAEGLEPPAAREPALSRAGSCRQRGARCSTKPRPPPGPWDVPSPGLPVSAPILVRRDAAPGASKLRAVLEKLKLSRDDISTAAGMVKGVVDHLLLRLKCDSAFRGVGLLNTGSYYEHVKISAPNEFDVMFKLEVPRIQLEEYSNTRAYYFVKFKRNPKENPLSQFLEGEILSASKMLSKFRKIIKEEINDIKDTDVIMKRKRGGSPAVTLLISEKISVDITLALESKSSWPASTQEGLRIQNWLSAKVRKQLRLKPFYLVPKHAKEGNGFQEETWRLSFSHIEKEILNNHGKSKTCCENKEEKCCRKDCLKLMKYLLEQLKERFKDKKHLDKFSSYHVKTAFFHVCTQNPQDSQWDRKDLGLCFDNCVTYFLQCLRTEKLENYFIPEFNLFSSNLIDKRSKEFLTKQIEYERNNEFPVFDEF
T1 sequence (Q96SW2 whole entry, looked up): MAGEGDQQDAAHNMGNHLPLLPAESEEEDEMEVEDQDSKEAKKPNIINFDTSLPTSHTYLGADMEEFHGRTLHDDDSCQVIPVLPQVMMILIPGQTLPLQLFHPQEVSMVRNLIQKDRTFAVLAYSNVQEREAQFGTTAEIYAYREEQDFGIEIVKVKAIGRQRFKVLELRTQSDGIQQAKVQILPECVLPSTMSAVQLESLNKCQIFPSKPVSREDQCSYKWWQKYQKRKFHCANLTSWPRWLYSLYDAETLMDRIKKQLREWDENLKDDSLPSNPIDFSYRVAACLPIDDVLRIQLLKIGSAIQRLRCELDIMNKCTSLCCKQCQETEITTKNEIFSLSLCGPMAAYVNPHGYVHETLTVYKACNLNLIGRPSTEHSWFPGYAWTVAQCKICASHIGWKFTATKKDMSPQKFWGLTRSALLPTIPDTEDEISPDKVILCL

Data set [2] has as its system Mus musculus. Put plainly: Anti-inflammatory activity in DSS-induced ulcerative colitis C57BL/6 mouse model assessed as reduction in IFNB mRNA level in colon at 20 to 50 mg/kg/day, ip preadministered with DSS for 7 days followed by replacement with ultrapure water for 3 days with subsequent compound administration starting from day 4 to 10 and measured on day 11 by qRT-PCR analysis. It counts as functional, organism-based. As to conditions: dose 20-50 mg/kg/day, time 8.0 day.

Data set [3] deals with T1, Protein cereblon/Cyclic GMP-AMP synthase. In words: PROTAC activity at CRBN/cGAS in human THP-1 cells assessed as induction of cGAS degradation at 10 uM preincubated with 1-(6,7-dichloro-9-(1-methyl-1H-pyrazol-3-yl)-1,3,4,5-tetrahydro-2H-pyrido[4,3-b]indol-2-yl)-2-hydroxyethan-1-one for 2 hrs followed by compound addition and measured after 48 hrs by Western blot analysis. The data set is classed as cell-based.

For another data set, the system named is THP1-Lucia ISG. Put plainly: Potency index, ratio of 1-(6,7-dichloro-9-(1-methyl-1H-pyrazol-3-yl)-1,3,4,5-tetrahydro-2H-pyrido[4,3-b]indol-2-yl)-2-hydroxyethan-1-one IC50 to test compound IC50 for inhibition of dsDNA-induced cGAS signaling pathway in human THP1-Lucia ISG cells preincubated with compound for 24 hrs followed by HT-DNA addition and measured after 24 hrs by QUANTI-Luc luciferase reagent based assay. The data set is classed as cell-based. As to conditions: time 48.0 hrs.

Data set [4] has as its system RAW264.7. Put plainly: Inhibition of ds-DNA induced cGAS-STING signaling pathway in mouse RAW264.7 cells assessed as reduction in IRF3 phosphorylation preincubated with compound for 40 hrs followed by HT-DNA addition and measured after 8 hrs by Western blot analysis. The conditions noted are these: dose 0.7-20 µM, time 48.0 hrs. The data set is classed as cell-based.

The subject of data set [5] is Mus musculus. In words: Anti-inflammatory activity in DSS-induced ulcerative colitis C57BL/6 mouse model assessed as reduction in TNF-alpha secretion in colon at 20 to 50 mg/kg/day, ip preadministered with DSS for 7 days followed by replacement with ultrapure water for 3 days with subsequent compound administration starting from day 4 to 10 and measured on day 11 by ELISA. It counts as functional, organism-based. As to conditions: dose 20-50 mg/kg/day, time 8.0 day. For orientation: ELISA stands for enzyme-linked immunosorbent assay.

In data set [6] the test system is RAW264.7. In words: Inhibition of ds-DNA induced cGAS-STING signaling pathway in mouse RAW264.7 cells assessed as reduction in STING phosphorylation preincubated with compound for 40 hrs followed by HT-DNA addition and measured after 8 hrs by Western blot analysis. It counts as cell-based. As to conditions: dose 0.7-20 µM, time 48.0 hrs.
Data set [7] concerns THP-1. Put plainly: Downregulation of IFNB mRNA expression level in poly(I:C)-induced human THP-1 cells at 20 uM preincubated with compound for 12 hrs followed by poly(I:C) addition and measured after 8 hrs by RT-qPCR analysis. The data set is classed as functional, cell-based. The conditions noted are these: time 20.0 hrs. Background: Real-time PCR tracks product formation cycle by cycle.

Data set [8] concerns THP-1. In words: Inhibition of ds-DNA induced cGAS-STING signaling pathway in human THP-1 cells assessed as reduction in TBK1 phosphorylation preincubated with compound for 40 hrs followed by HT-DNA addition and measured after 8 hrs by Western blot analysis. The data set is classed as cell-based. As to conditions: dose 0.7-20 µM, time 48.0 hrs.
The target in data set [9] is Protein cereblon/Cyclic GMP-AMP synthase (Mus musculus, UniProt Q8C6L5+Q8C7D2). Put plainly: (§1) PROTAC activity at CRBN/cGAS in mouse RAW264.7 cells assessed as induction of cGAS degradation preincubated with compound for 40 hrs followed by HT-DNA stimulation and measured after 8 hrs by Western blot analysis. The data set is classed as cell-based.
Sequence of Protein cereblon/Cyclic GMP-AMP synthase (Mus musculus, UniProt Q8C6L5+Q8C7D2) (Q8C6L5 whole entry): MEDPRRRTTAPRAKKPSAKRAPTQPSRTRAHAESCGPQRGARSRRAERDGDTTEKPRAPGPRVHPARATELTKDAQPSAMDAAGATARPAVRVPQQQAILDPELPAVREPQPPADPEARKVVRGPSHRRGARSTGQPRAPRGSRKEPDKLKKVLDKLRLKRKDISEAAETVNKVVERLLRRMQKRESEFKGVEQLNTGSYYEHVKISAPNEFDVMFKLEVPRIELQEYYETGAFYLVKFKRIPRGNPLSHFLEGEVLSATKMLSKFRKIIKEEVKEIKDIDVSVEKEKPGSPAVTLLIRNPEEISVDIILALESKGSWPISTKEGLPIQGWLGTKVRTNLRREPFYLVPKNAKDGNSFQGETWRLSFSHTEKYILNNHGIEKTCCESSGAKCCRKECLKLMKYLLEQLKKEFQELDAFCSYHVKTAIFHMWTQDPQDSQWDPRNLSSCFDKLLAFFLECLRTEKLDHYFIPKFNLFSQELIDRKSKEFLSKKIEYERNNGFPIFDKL
Sequence of Protein cereblon/Cyclic GMP-AMP synthase (Mus musculus, UniProt Q8C6L5+Q8C7D2) (Q8C7D2 whole entry): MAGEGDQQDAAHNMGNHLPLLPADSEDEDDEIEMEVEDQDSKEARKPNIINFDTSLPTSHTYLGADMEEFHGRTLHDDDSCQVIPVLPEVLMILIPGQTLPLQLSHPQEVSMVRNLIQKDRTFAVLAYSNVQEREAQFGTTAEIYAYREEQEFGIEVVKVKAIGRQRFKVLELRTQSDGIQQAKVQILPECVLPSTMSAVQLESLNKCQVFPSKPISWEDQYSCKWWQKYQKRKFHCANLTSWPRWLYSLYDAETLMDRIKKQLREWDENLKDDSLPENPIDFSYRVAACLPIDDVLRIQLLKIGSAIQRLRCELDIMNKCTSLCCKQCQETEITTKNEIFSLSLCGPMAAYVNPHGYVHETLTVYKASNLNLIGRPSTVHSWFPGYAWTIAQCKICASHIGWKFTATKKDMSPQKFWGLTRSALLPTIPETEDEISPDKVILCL
Data set [10] concerns the target T2, Protein cereblon/Cyclic GMP-AMP synthase (Mus musculus) (UniProt Q8C6L5+Q8C7D2). The description is as §1. It counts as cell-based. As to conditions: time 48.0 hrs.
In data set [11] the test system is THP-1. Put plainly: Downregulation of IFNB mRNA expression level in ISD-induced human THP-1 cells at 20 uM preincubated with compound for 12 hrs followed by 45-bp immune stimulatory DNA addition and measured after 8 hrs by RT-qPCR analysis. The data set is classed as functional, cell-based. The conditions noted are these: time 20.0 hrs.
The nature of data set [12]: Cytotoxicity against human THP1-Lucia ISG cells assessed as reduction in cell viability upto 60 uM incubated for 48 hrs by CCK8 assay. It counts as toxicity, cell-based.
Data set [13] relates to THP-1. In words: Downregulation of IFNB mRNA expression in human THP-1 cells preincubated with compound for 40 hrs followed by HT-DNA addition and measured after 8 hrs by qRT-PCR analysis. As to conditions: dose 1.25-10 µM, time 48.0 hrs. The data set is classed as functional, cell-based.
A short description of data set [14]: Drug distribution in male C57BL/6 mouse colon at 20 mg/kg, ip measured after 2 to 24 hrs by LC-MS/MS analysis. As to conditions: in vivo, time 2-24 hrs. The data set is classed as ADME, organism-based.
In data set [15] the target is T2, Protein cereblon/Cyclic GMP-AMP synthase (Mus musculus). In words: In vivo inhibition of cGAS signaling pathway in DSS-induced ulcerative colitis C57BL/6 mouse model assessed as reduction in cGAS protein level in colon preadministered with DSS for 7 days followed by replacement with ultrapure water for 3 days with subsequent intraperitoneal compound administration starting from day 4 to 10 and measured on day 11 by Western blot analysis. The data set is classed as functional, organism-based. As to conditions: dose 20-50 mg/kg/day, route ip, time 8.0 day.

The test system of data set [16] is THP-1. Put plainly: Inhibition of ds-DNA induced cGAS-STING signaling pathway in human THP-1 cells assessed as reduction in STING phosphorylation preincubated with compound for 40 hrs followed by HT-DNA addition and measured after 8 hrs by Western blot analysis. It counts as cell-based. As to conditions: dose 0.7-20 µM, time 48.0 hrs.
In data set [17] the target is T1, Protein cereblon/Cyclic GMP-AMP synthase. Put plainly: PROTAC activity at CRBN/cGAS in human THP-1 cells assessed as induction of cGAS degradation at 10 uM preincubated with MG132 for 2 hrs followed by compound addition and measured after 48 hrs by Western blot analysis. It counts as cell-based.
The target of data set [18] is Cyclic GMP-AMP synthase (Homo sapiens) (UniProt Q8N884). In words: Inhibition of cGAMP-induced cGAS signaling pathway in human THP1-Lucia ISG cells at 0.2 to 20 uM preincubated with compound for 2 hrs followed by cGAMP addition and measured after 24 hrs by QUANTI-Luc luciferase reagent based assay. The conditions noted are these: dose 0.2-20 µM, time 26.0 hrs. The data set is classed as cell-based.
Sequence of Cyclic GMP-AMP synthase (Homo sapiens) (Q8N884 whole entry): as the sequence (Q8N884 whole entry, looked up) above

Data set [19] relates to Mus musculus. Put plainly: Anti-inflammatory activity in DSS-induced ulcerative colitis C57BL/6 mouse model assessed as reduction in IL-6 secretion in colon at 20 to 50 mg/kg/day, ip preadministered with DSS for 7 days followed by replacement with ultrapure water for 3 days with subsequent compound administration starting from day 4 to 10 and measured on day 11 by ELISA. The data set is classed as functional, organism-based. The conditions noted are these: dose 20-50 mg/kg/day, time 8.0 day.

Data set [20] concerns THP-1. Put plainly: Downregulation of IFNB mRNA expression level in cGAMP-induced human THP-1 cells at 20 uM preincubated with compound for 12 hrs followed by cGAMP addition and measured after 8 hrs by RT-qPCR analysis. It counts as functional, cell-based. As to conditions: time 20.0 hrs.
Data set [21] deals with T2, Protein cereblon/Cyclic GMP-AMP synthase (Mus musculus). Put plainly: PROTAC activity at CRBN/cGAS in mouse RAW264.7 cells assessed as induction of cGAS degradation by measuring maximal efficacy at 20 uM preincubated with compound for 40 hrs followed by HT-DNA stimulation and measured after 8 hrs by Western blot analysis relative to control. The conditions noted are these: time 48.0 hrs. It counts as cell-based.

The subject of data set [22] is Mus musculus. In words: Anti-inflammatory activity in DSS-induced ulcerative colitis C57BL/6 mouse model assessed as reduction in mucosal NET formation by measuring reduction in citH3 level in colon at 20 to 50 mg/kg/day, ip preadministered with DSS for 7 days followed by replacement with ultrapure water for 3 days with subsequent compound administration starting from day 4 to 10 and measured on day 11 by immunofluorescence imaging analysis. The data set is classed as functional, organism-based. The conditions noted are these: dose 20-50 mg/kg/day, time 8.0 day.

Each structure is given as a SMILES string. The source made the active and inactive calls. No cut-off for these calls is given here.

T2 sequence (Q8C6L5 whole entry, looked up): as the sequence (Q8C6L5 whole entry) above
T2 sequence (Q8C7D2 whole entry, looked up): as the sequence (Q8C7D2 whole entry) above

Take `Cn1ccc(-c2cc(Cl)c(Cl)c3[nH]c4c(c23)CN(C(=O)CNC(=O)CCCC#Cc2cccc3c2CN(C2CCC(=O)NC2=O)C3=O)CC4)n1` (stereo not drawn): the Activity was 78.9% in data set [1], “Dose-dependent-effect” in data set [10], “Non-toxic” in [12] and “Dose-dependent-effect” in the data set with THP-1 [13]. The outcome in the data set on Mus musculus [2], in the data set with Mus musculus [5], in the data set with THP-1 [11], in the data set on Mus musculus [19] and in the data set on Mus musculus [22] was Active. The result (in [3]; in the data set with THP-1 [7]; in data set [17]; with THP-1 [20]) was inactive. For the same compound, in the data set with THP1-Lucia ISG, the Ratio IC50 was found to be 3. Further, the inhibition entry (with RAW264.7 [4]; in the data set with RAW264.7 [6]; with THP-1 [8]; in data set [15]; with THP-1 [16]) was “Dose-dependent-effect” each time. In addition, in [9], the DC50 is 4.6 µM. For the same compound, the Drug uptake entry in [14] is listed as “Active”. Further, in data set [18], the inhibition entry was “inactive”. Further, the Emax in [21] was determined as 91.6%.

The DC50 is the concentration giving 50% degradation. Broadly, the Emax is the size of the effect at its maximum, as opposed to the concentration needed.

Values taken from ChEMBL document CHEMBL6103619, “Discovery of a Novel CRBN-Recruiting cGAS PROTAC Degrader for the Treatment of Ulcerative Colitis” (J Med Chem, 2025).
